Assay results as given in ChEMBL document CHEMBL6103558, “The potential of MAO inhibitors as chemotherapeutics in cancer: A literature survey” (Eur J Med Chem, 2025).
Values belong to the compound of their own block, whether it stands above or below them.

What was measured:
HCT-116 [1] = test: Anti-migratory activity against human HCT116 cells assessed as reduction in cell migration at 0.05 uM incubated for 24 hrs by wound healing assay relative to control; type: functional; parameters: scale not given: the % may be the effect or the level left
HCT-116 [2] = test: Anticancer activity against human HCT-116 cells assessed as reduction in cell growth by MTT assay; type: functional, cell-based
MCF7 = test: Antiproliferative activity against human MCF7 cells by MTT assay; type: functional, cell-based
SK-OV-3 = test: Antiproliferative activity against human SK-OV-3 cells by MTT assay; type: functional, cell-based
HCT-116 [3] = test: Antiproliferative activity against human HCT-116 cells by MTT assay; type: functional, cell-based
[4] = biological target: T1, Amine oxidase [flavin-containing] B (Homo sapiens, UniProt P27338); test: Binding affinity to MAO-B (unknown origin) measured by MAO-GloTM method
T1 sequence (P27338 whole entry): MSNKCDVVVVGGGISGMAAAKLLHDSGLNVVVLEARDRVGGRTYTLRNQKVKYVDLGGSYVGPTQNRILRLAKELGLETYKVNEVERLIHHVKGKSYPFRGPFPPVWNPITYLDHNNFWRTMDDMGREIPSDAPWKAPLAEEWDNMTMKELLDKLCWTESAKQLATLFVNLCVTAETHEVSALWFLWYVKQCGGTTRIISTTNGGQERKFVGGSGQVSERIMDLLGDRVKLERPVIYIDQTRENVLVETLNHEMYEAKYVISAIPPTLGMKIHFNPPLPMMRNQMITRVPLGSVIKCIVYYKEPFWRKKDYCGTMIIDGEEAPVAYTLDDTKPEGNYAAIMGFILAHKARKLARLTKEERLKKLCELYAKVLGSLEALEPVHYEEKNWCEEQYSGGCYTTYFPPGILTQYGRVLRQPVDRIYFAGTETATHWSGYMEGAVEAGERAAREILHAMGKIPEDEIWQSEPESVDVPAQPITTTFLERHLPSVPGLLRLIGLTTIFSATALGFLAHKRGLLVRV

LN-229 = test: Growth inhibition of human LN-229 cells incubated for 48 hrs by trypan blue exclusion assay; type: functional
[5] = biological target: T1, Amine oxidase [flavin-containing] B; test: Inhibition of human MAO-B
[6] = biological target: T2, Amine oxidase [flavin-containing] A (Homo sapiens, UniProt P21397); test: Binding affinity to human recombinant MAO-A assessed as inhibition constant by MAO-GloTM method
T2 sequence (P21397 whole entry): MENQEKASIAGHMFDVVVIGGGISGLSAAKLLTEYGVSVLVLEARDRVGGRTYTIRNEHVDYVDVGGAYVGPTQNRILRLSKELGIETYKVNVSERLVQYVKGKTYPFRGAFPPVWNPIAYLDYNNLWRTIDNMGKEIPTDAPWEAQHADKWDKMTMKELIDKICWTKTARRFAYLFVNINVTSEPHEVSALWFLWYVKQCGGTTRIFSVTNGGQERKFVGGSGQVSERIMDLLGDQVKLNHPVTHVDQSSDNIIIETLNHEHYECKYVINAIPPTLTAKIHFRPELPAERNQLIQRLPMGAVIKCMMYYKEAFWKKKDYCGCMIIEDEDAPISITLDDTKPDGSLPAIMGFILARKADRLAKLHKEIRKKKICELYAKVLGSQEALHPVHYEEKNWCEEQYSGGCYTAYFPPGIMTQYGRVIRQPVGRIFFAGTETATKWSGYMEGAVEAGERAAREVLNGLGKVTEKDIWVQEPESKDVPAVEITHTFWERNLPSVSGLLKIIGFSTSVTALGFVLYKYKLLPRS

LNCaP = test: Antiproliferative activity against human LNCap cells assessed as reduction in cell viability incubated for 72 hrs by resazurin dye based assay; type: functional
A549 = test: Antiproliferative activity against human A549 cells; type: functional, cell-based
T47D = test: Antiproliferative activity against human T47D cells; type: functional, cell-based
[7] = biological target: T2, Amine oxidase [flavin-containing] A; test: Inhibition of MAO-A (unknown origin)
HBL-100 = test: Antiproliferative activity against human HBL-100 cells; type: functional, cell-based
WiDr = test: Antiproliferative activity against human WiDr cells; type: functional, cell-based
SW1573 = test: Antiproliferative activity against human SW1573 cells; type: functional, cell-based

Compound: CN1CCC2=C(C1)C(c1c[nH]c3ccc(Br)cc13)c1cc(Cl)ccc1O2 (centres undefined)
- IC50 (MCF7): 4.83 µM
- IC50 (SK-OV-3): 4.83 µM
- IC50 (HCT-116 [3]): 4.83 µM

Compound: COc1ccccc1NCCCCCCC(=O)Nc1ccc(CCc2ccc(NC(=O)CCCCCCNc3ccccc3OC)cc2)cc1
- GI50 (LN-229): < 1000 nM

Compound: O=C(Cn1cc(Cn2c(=O)c(Cc3ccccc3)nc3ccccc32)nn1)NNC(=S)Nc1ccccc1
- Activity (HCT-116 [1]): 75%
- IC50 (HCT-116 [2]): 7.85 µM

Compound: C/C(=N\Nc1nc(-c2cccc([N+](=O)[O-])c2)cs1)c1ccsc1
- IC50 [5]: 2.5 nM

Compound: O=[N+]([O-])c1ccc(/C=N/Nc2nc(-c3ccccc3)c[se]2)cc1
- IC50 (A549): 24 µM
- IC50 (T47D): 24 µM
- IC50 [7]: 7.2 µM
- IC50 (HBL-100): 24 µM
- IC50 (WiDr): 24 µM
- IC50 (SW1573): 24 µM

Compound: C/C(=N\Nc1nc(-c2cccc([N+](=O)[O-])c2)cs1)c1cccs1
- IC50 [5]: 6.8 nM

Now from value to compound, other results behind:

- IC50 (HCT-116 [2]): 18 µM
Compound: O=C(Cn1cc(Cn2c(=O)c(Cc3ccccc3)nc3ccccc32)nn1)N/N=C/c1cccnc1
- Activity (HCT-116 [1]): 75%

- Ki [4]: < 1000 nM
Compound: C=C(CCCCCCNc1ccccc1OC)Nc1ccc(CCc2ccc(NC(=C)CCCCCCNc3ccccc3OC)cc2)cc1

- Ki [6]: 7.4 nM
- IC50 (LNCaP): ~10 µM
Compound: O=c1cc(-c2ccccc2)oc2c(Cl)cc(Cl)cc12
